This is an account of results in paper PMC10404671, “Deciphering the biosynthesis of a novel lipid in Mycobacterium tuberculosis expands the known roles of the nitroreductase superfamily” (The Journal of Biological Chemistry, 2023).

The target in test [1] is T1, TyzA (Mycobacterium tuberculosis, UniProt P95232).
T1 construct: gene Rv2336

Test [2] deals with T2, TyzB (Mycobacterium tuberculosis, UniProt P95234).
T2 construct: gene moeW

For test [3], the target named is T3, TyzC (Mycobacterium tuberculosis, UniProt P95233).
T3 construct: gene Rv2337c
T3 sequence (P95233 entry or part of it): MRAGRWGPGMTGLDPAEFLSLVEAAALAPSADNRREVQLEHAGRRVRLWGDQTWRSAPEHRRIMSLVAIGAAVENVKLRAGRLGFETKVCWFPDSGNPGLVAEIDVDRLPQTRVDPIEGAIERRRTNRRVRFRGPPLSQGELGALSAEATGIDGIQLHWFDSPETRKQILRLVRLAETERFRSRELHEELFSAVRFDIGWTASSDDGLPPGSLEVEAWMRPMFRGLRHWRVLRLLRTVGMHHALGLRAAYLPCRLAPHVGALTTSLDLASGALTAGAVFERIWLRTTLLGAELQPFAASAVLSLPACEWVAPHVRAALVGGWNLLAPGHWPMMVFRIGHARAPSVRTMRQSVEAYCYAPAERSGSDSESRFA

T2 sequence (P95234 entry or part of it): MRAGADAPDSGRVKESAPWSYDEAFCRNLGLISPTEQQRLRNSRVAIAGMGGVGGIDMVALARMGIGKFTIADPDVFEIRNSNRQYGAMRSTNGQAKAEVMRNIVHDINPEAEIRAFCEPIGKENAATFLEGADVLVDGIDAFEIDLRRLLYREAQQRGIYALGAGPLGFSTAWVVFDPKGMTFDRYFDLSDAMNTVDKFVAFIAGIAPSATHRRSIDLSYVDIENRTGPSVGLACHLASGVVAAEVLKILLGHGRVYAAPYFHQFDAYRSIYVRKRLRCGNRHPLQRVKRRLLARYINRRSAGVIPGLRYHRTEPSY
T1 sequence (P95232 entry or part of it): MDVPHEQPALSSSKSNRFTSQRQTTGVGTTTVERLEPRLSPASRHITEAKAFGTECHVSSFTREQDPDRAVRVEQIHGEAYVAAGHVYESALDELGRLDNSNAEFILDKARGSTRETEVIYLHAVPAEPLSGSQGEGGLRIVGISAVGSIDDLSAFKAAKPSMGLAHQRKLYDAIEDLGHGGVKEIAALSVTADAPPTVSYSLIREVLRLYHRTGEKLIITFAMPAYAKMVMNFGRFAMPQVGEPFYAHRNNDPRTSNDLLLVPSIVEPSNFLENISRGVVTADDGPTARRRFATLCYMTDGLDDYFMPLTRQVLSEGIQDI

In test [1], `CCCCCCCCCCCC(=O)SCCNC(=O)CCNC(=O)[C@H](O)C(C)(C)COP(=O)(O)OP(=O)(O)OC[C@H]1O[C@@H](n2cnc3c(N)ncnc32)[C@H](O)[C@@H]1OP(=O)(O)O` [C12:0-CoA] gave a KiS of 450 ± 90 µM.
On to `Nc1ncnc2c1ncn2[C@@H]1O[C@H](COP(=O)(O)OP(=O)(O)OP(=O)(O)O)[C@@H](O)[C@H]1O` [ATP], for which the “LC-QTOF endpoint assay, purified TyzA plus RHA1 pTip-TyzBC lysate” value in test [2] is “performed ATP-dependent cyclization and O2-dependent desaturation of C12:0-L-Tyr, respectively”.
As to `CCCCCCCCCCCC(=O)N[C@@H](Cc1ccc(O)cc1)C(=O)O` [C12:0-L-Tyr], the “LC-QTOF endpoint assay, purified TyzA plus RHA1 pTip-TyzBC lysate” value in test [3] was “performed ATP-dependent cyclization and O2-dependent desaturation of C12:0-L-Tyr, respectively”.
